Source: ChEMBL document CHEMBL1150845, “Two new constituents of Isodon excisus and their evaluation in an apoptosis inhibition assay” (J Nat Prod, 2001)
In brackets after ≈: the same amount, converted by molar mass.

system: U-937; experiment: Inhibition of etoposide-induced apoptosis in human U937 cells assessed as inhibition of caspase 3 induction after 7 hrs; type: functional, cell-based; conditions: U-937, 7 h

Question: For `COC(=O)C[C@H](OC(=O)/C=C/c1ccc(O)c(O)c1)c1ccc(O)c(O)c1`, which IC50 is on record?
Answer: 52.4 µg/mL (≈ 140 µM)

Question: For `COc1cc(/C=C/C(=O)NC[C@@H](OC)c2ccc(O)cc2)ccc1O`, which IC50 is on record?
Answer: 10.2 µg/mL (≈ 29.7 µM)

Question: `S=C(S)N1CCCC1` [PYRROLIDINE DITHIOCARBAMATE] was tested. Which IC50 did it give?
Answer: 8.3 µg/mL (≈ 56.4 µM)
